Data published in patent US5120711A, “Synergistically active veterinary compositions and process for preparing same” (EGIS Gyogyszergyar, priority 1988, dated 1992).
Positions of bridges follow the written chain, without caps; N, C: chain ends. Non-standard residues stand in square brackets, D forms with d. Residues, ends and D or L forms follow the SMILES beside them. *: point of attachment. Octanoyl(6-Me) = CCC(C)CCCCC(=O)*; Dab = NCC[CH](N)C(=O)O

Key:
Streptococcus agalactiae = experiment: MIC, serial dilution in phenol red-glucose broth; type: cell-based; conditions: bactericidal, complete inhibition of growth, 37° C.; for MIC: Streptococcus agalactiae, read-out: MIC values for microorganism H (Streptococcus agalactiae)
Method: (§1) The minimum inhibitory concentrations (MIC values) of the above compounds and their two-component combinations of 1:1 ratio by weight against the following microorganisms arising from mastitis and metritis processes of cattle were tested by using the serial dilution method in a phenol red-glucose broth medium (manufactured by DIFCO) or, by using a Sabouraud's broth medium, respectively in the cases of fungal strains.
H--Streptococcus agalactiae
(§2) Bacterial strains were cultivated at 37° C. whilst the fungal strain (Candida albicans) was propagated at 26° C.

Pseudomonas aeruginosa = experiment: MIC, serial dilution in phenol red-glucose broth; type: cell-based; conditions: bactericidal, complete inhibition of growth, 37° C.; for MIC: Pseudomonas aeruginosa, read-out: MIC values for microorganism F (Pseudomonas aeruginosa)
Method: as §1
F--Pseudomonas aeruginosa
as §2

Aspergillus fumigatus = experiment: MIC, serial dilution in Sabouraud's broth; type: cell-based; conditions: complete inhibition of growth; for MIC: Aspergillus fumigatus, read-out: MIC values for microorganism Z (Aspergillus fumigatus)
Method: as §1
Z--Aspergillus fumigatus.
as §2

[1] = system: Fusobacterium necrophorum; experiment: MIC, agar dilution method on bloody agar; type: cell-based; conditions: agar dilution method on bloody agar containing tryptose, 37° C.; for MIC: Fusobacterium necrophorum, read-out: MIC values for microorganism S (Fusobacterium necrophorum)
Method: as §1
S--Fusobacterium necrophorum
(§3) Campylobacter strains were tested in a semiliquid thiol culture medium (manufactured by DIFCO). Bacteroides fragilis and Fusobacterium necrophorum strains were examined by using the agar dilution method on bloody agar containing also tryptose.
as §2

Listeria monocytogenes = experiment: MIC, serial dilution in phenol red-glucose broth; type: cell-based; conditions: bactericidal, complete inhibition of growth, 37° C.; for MIC: Listeria monocytogenes, read-out: MIC values for microorganism L (Listeria monocytogenes)
Method: as §1
L--Listeria monocytogenes
as §2

Mycoplasma bovis = experiment: MIC, serial dilution in phenol red-glucose broth; type: cell-based; conditions: bactericidal, complete inhibition of growth, 37° C.; for MIC: Mycoplasmopsis bovis, read-out: MIC values for microorganism T (Mycoplasma bovis)
Method: as §1
Bacterial strains were cultivated at 37° C. whilst the fungal strain (Candida albicans) was propagated at 26° C. The minimum inhibitory concentrations (MIC values) showing a bactericidal effect, i.e. complete inhibition of the growth of microorganisms whereby the media inoculated remained sterile, are summarized in Table 1.

Bacteroides fragilis = experiment: MIC, agar dilution method on bloody agar; type: cell-based; conditions: agar dilution method on bloody agar containing tryptose, 37° C.; for MIC: Bacteroides fragilis, read-out: MIC values for microorganism R (Bacteroides fragilis)
Method: as §1, §3, §2

Candida albicans = experiment: MIC, serial dilution in Sabouraud's broth; type: cell-based; conditions: for MIC: Candida albicans, read-out: MIC values for microorganism G (Candida albicans)
Method: as §1, §2

Salmonella typhimurium = experiment: MIC, serial dilution in phenol red-glucose broth; type: cell-based; conditions: bactericidal, complete inhibition of growth, 37° C.; for MIC: Salmonella enterica, TYPHIMURIUM, read-out: MIC values for microorganism N (Salmonella typhimurium)
Method: as §1
N--Salmonella typhimurium
as §2

[2] = system: Streptococcus zooepidemicus; experiment: MIC, serial dilution in phenol red-glucose broth; type: cell-based; conditions: bactericidal, complete inhibition of growth, 37° C.; for MIC: Streptococcus equi, read-out: MIC values for microorganism B (Streptococcus zooepidemicus)
Method: as §1
B--Streptococcus zooepidemicus
as §2

Mycoplasma canadense = experiment: MIC, serial dilution in phenol red-glucose broth; type: cell-based; conditions: bactericidal, complete inhibition of growth, 37° C.; for MIC: Mycoplasma, read-out: MIC values for microorganism V (Mycoplasma canadense)
Method: as §1, §2

Streptococcus uberis = experiment: MIC, serial dilution in phenol red-glucose broth; type: cell-based; conditions: bactericidal, complete inhibition of growth, 37° C.; for MIC: Streptococcus uberis, read-out: MIC values for microorganism J (Streptococcus uberis)
Method: as §1, §2

Klebsiella pneumoniae = experiment: MIC, serial dilution in phenol red-glucose broth; type: cell-based; conditions: bactericidal, complete inhibition of growth, 37° C.; for MIC: Klebsiella pneumoniae, read-out: MIC values for microorganism E (Klebsiella pneumoniae)
Method: as §1, §2

Mycoplasma bovirhinis = experiment: MIC, serial dilution in phenol red-glucose broth; type: cell-based; conditions: bactericidal, complete inhibition of growth, 37° C.; for MIC: Mycoplasma, read-out: MIC values for microorganism U (Mycoplasma bovirhinis)
Method: as §1, §2

[3] = system: Streptococcus dysgalactiae; experiment: MIC, serial dilution in phenol red-glucose broth; type: cell-based; conditions: bactericidal, complete inhibition of growth, 37° C.; for MIC: Streptococcus dysgalactiae, read-out: MIC values for microorganism I (Streptococcus dysgalactiae)
Method: as §1
I--Streptococcus dysgalactiae
as §2

Escherichia coli 17 = experiment: microbe, parasite or virus in culture; conditions: for MIC: Escherichia coli, 17, read-out: MIC values for microorganism D (Escherichia coli 17)
Method: as §1, §2

Escherichia coli 494 = experiment: microbe, parasite or virus in culture; conditions: for MIC: Escherichia coli, 494, read-out: MIC values for microorganism C (Escherichia coli 494)
Method: as §1, §2

Staphylococcus aureus = experiment: microbe, parasite or virus in culture; conditions: for MIC: Staphylococcus aureus, read-out: MIC values for microorganism A (Staphylococcus aureus)
Method: as §1, §2

Campylobacter jejuni = experiment: MIC in semiliquid thiol culture medium; type: cell-based; conditions: bactericidal, complete inhibition of growth, 37° C.; for MIC: Campylobacter jejuni, read-out: MIC values for microorganism P (Campylobacter jejuni)
Method: as §1, §3, §2

Campylobacter fetus = experiment: MIC in semiliquid thiol culture medium; type: cell-based; conditions: bactericidal, complete inhibition of growth, 37° C.; for MIC: Campylobacter fetus, read-out: MIC values for microorganism O (Campylobacter fetus)
Method: as §1, §3, §2

Streptococcus faecalis = experiment: MIC, serial dilution in phenol red-glucose broth; type: cell-based; conditions: bactericidal, complete inhibition of growth, 37° C.; for MIC: Enterococcus faecalis, read-out: MIC values for microorganism K (Streptococcus faecalis)
Method: as §1
K--Streptococcus faecalis
as §2

Corynebacterium pyogenes = experiment: MIC, serial dilution in phenol red-glucose broth; type: cell-based; conditions: bactericidal, complete inhibition of growth, 37° C.; for MIC: Corynebacterium pyogenes, read-out: MIC values for microorganism M (Corynebacterium pyogenes)
Method: as §1
M--Corynebacterium pyogenes
as §2

[4] = complete inhibition of growth, Sabouraud's broth, 26° C.
[5] = bactericidal, complete inhibition of growth, phenol red-glucose broth, 37° C.

Q: How did the MIC (Streptococcus agalactiae) turn out when `Clc1ccccc1C(c1ccccc1)(c1ccccc1)n1ccnc1` [Clotrimazole, 1-(2-chlorophenyl)-diphenylmethyl-1H-imidazole] was run?
A: 5 µg/mL

Q: And the MIC (Pseudomonas aeruginosa)?
A: > 200 µg/mL

Q: And the MIC (Aspergillus fumigatus)?
A: 1 µg/mL

Q: And the MIC [1]?
A: 100 µg/mL

Q: And the MIC (Listeria monocytogenes)?
A: 5 µg/mL

Q: And the MIC (Mycoplasma bovis)?
A: 32 µg/mL

Q: What about the MIC (Bacteroides fragilis) of the same compound?
A: 200 µg/mL

Q: What about the MIC (Candida albicans; [4]) of the same compound?
A: 5 µg/mL

Q: What about the MIC (Salmonella typhimurium) of the same compound?
A: 200 µg/mL

Q: What about the MIC [2] of the same compound?
A: 0.5 µg/mL

Q: What about the MIC (Mycoplasma canadense) of the same compound?
A: 32 µg/mL

Q: What about the MIC (Streptococcus uberis) of the same compound?
A: 0.5 µg/mL

Q: What about the MIC (Klebsiella pneumoniae) of the same compound?
A: > 200 µg/mL

Q: What about the MIC (Mycoplasma bovirhinis) of the same compound?
A: 32 µg/mL

Q: And the MIC [3]?
A: 0.5 µg/mL

Q: And the MIC (Escherichia coli 17)?
A: > 200 µg/mL

Q: And the “effect on Escherichia coli strains, in words” value (Escherichia coli 17; substance alone)?
A: very weak effect

Q: And the MIC (Escherichia coli 494)?
A: > 200 µg/mL

Q: What about the “effect on Escherichia coli strains, in words” value (Escherichia coli 494; substance alone) of the same compound?
A: very weak effect

Q: What about the MIC (Staphylococcus aureus) of the same compound?
A: 0.5 µg/mL

Q: What about the MIC (Campylobacter jejuni) of the same compound?
A: 100 µg/mL

Q: What about the MIC (Campylobacter fetus) of the same compound?
A: 100 µg/mL

Q: And the MIC (Streptococcus faecalis)?
A: 5 µg/mL

Q: And the MIC (Corynebacterium pyogenes)?
A: 25 µg/mL

Q: For `Cc1ccc2c(Cl)cc(Cl)c(O)c2n1` [Chlorquinaldol, 2-methyl-5,7-dichloro-8-hydroxyquinoline], which MIC (Streptococcus agalactiae) is on record?
A: 0.5 µg/mL

Q: What about the MIC (Pseudomonas aeruginosa) of the same compound?
A: 200 µg/mL

Q: What about the MIC (Aspergillus fumigatus) of the same compound?
A: 25 µg/mL

Q: And the MIC [1]?
A: 3 µg/mL

Q: And the MIC (Listeria monocytogenes)?
A: 1 µg/mL

Q: What about the MIC (Mycoplasma bovis) of the same compound?
A: 32 µg/mL

Q: What about the MIC (Bacteroides fragilis) of the same compound?
A: 1.5 µg/mL

Q: What about the MIC (Candida albicans; [4]) of the same compound?
A: 1 µg/mL

Q: And the MIC (Salmonella typhimurium)?
A: 200 µg/mL

Q: What about the MIC [2] of the same compound?
A: 0.5 µg/mL

Q: And the MIC (Mycoplasma canadense)?
A: 8 µg/mL

Q: And the MIC (Streptococcus uberis)?
A: 0.5 µg/mL

Q: What about the MIC (Klebsiella pneumoniae) of the same compound?
A: 200 µg/mL

Q: And the MIC (Mycoplasma bovirhinis)?
A: 4 µg/mL

Q: What about the MIC [3] of the same compound?
A: 0.5 µg/mL

Q: What about the MIC (Escherichia coli 17) of the same compound?
A: 5 µg/mL

Q: And the MIC (Escherichia coli 494)?
A: 5 µg/mL

Q: What about the MIC (Staphylococcus aureus) of the same compound?
A: 5 µg/mL

Q: And the MIC (Campylobacter jejuni)?
A: 5 µg/mL

Q: What about the MIC (Campylobacter fetus) of the same compound?
A: 10 µg/mL

Q: And the MIC (Streptococcus faecalis)?
A: 5 µg/mL

Q: What about the MIC (Corynebacterium pyogenes) of the same compound?
A: 5 µg/mL

Q: What does the source list for `CCC(C)CCCCC(=O)NC(CCN)C(=O)NC(C(=O)NC(CCN)C(=O)NC1CCNC(=O)C(C(C)O)NC(=O)C(CCN)NC(=O)C(CCN)NC(=O)C(CC(C)C)NC(=O)C(Cc2ccccc2)NC(=O)C(CCN)NC1=O)C(C)O` (stereo not drawn) [Polymyxin B, 6,9,18-tris(2-aminoethyl)-15-benzyl-21-[2,8-bis(2-aminoethyl)-5-(1-hydroxyethyl)-15-methyl-4,7,10-trioxo-3,6,9-triazaheptadecanamido]-3-(1-hydroxyethyl)-12-isobutyl-1,4,7,10,13,16,19-heptaazacyclotricosane-2,5,8,11,14,17,20-heptaone] ({Octanoyl(6-Me)}-[Dab]T[Dab][Dab][Dab]FL[Dab][Dab]T; lactam 4-C; configuration not given here)?
A: MIC values for microorganism H (Streptococcus agalactiae) (Streptococcus agalactiae): 5 µg/mL; MIC values for microorganism F (Pseudomonas aeruginosa) (Pseudomonas aeruginosa): 0.5 µg/mL; MIC values for microorganism Z (Aspergillus fumigatus) (Aspergillus fumigatus): 200 µg/mL; MIC values for microorganism S (Fusobacterium necrophorum) [1]: 200 µg/mL; MIC values for microorganism L (Listeria monocytogenes) (Listeria monocytogenes): 5 µg/mL; MIC values for microorganism T (Mycoplasma bovis) (Mycoplasma bovis): 32 µg/mL; MIC values for microorganism R (Bacteroides fragilis) (Bacteroides fragilis): 200 µg/mL; MIC values for microorganism G (Candida albicans) (Candida albicans; [4]): 200 µg/mL; fungicidal action, in words (Candida albicans; substance alone): practically no fungicidal action; MIC values for microorganism N (Salmonella typhimurium) (Salmonella typhimurium): 1 µg/mL; MIC values for microorganism B (Streptococcus zooepidemicus) [2]: 5 µg/mL; MIC values for microorganism V (Mycoplasma canadense) (Mycoplasma canadense): 32 µg/mL; MIC values for microorganism J (Streptococcus uberis) (Streptococcus uberis): 10 µg/mL; MIC values for microorganism E (Klebsiella pneumoniae) (Klebsiella pneumoniae): 5 µg/mL; MIC values for microorganism U (Mycoplasma bovirhinis) (Mycoplasma bovirhinis): 32 µg/mL; MIC values for microorganism I (Streptococcus dysgalactiae) [3]: 5 µg/mL; MIC values for microorganism D (Escherichia coli 17) (Escherichia coli 17; [5]): 0.5 µg/mL; MIC values for microorganism C (Escherichia coli 494) (Escherichia coli 494; [5]): 0.5 µg/mL; MIC values for microorganism A (Staphylococcus aureus) (Staphylococcus aureus; [5]): 50 µg/mL; MIC values for microorganism P (Campylobacter jejuni) (Campylobacter jejuni): 5 µg/mL; MIC values for microorganism O (Campylobacter fetus) (Campylobacter fetus): 0.5 µg/mL; MIC values for microorganism K (Streptococcus faecalis) (Streptococcus faecalis): 200 µg/mL; MIC values for microorganism M (Corynebacterium pyogenes) (Corynebacterium pyogenes): 200 µg/mL
